From BindingDB's records for doi:10.1021/jm00195a008 (1979)

Biological target: DNA-directed RNA polymerase subunit alpha/beta/beta'/omega (Escherichia coli (strain K12), UniProt P0A7Z4+P0A800+P0A8T7+P0A8V2)
Experiment: Inhibition of Escherichia coli DNA-dependent RNA polymerase

Sequence of DNA-directed RNA polymerase subunit alpha/beta/beta'/omega (P0A8V2 whole entry): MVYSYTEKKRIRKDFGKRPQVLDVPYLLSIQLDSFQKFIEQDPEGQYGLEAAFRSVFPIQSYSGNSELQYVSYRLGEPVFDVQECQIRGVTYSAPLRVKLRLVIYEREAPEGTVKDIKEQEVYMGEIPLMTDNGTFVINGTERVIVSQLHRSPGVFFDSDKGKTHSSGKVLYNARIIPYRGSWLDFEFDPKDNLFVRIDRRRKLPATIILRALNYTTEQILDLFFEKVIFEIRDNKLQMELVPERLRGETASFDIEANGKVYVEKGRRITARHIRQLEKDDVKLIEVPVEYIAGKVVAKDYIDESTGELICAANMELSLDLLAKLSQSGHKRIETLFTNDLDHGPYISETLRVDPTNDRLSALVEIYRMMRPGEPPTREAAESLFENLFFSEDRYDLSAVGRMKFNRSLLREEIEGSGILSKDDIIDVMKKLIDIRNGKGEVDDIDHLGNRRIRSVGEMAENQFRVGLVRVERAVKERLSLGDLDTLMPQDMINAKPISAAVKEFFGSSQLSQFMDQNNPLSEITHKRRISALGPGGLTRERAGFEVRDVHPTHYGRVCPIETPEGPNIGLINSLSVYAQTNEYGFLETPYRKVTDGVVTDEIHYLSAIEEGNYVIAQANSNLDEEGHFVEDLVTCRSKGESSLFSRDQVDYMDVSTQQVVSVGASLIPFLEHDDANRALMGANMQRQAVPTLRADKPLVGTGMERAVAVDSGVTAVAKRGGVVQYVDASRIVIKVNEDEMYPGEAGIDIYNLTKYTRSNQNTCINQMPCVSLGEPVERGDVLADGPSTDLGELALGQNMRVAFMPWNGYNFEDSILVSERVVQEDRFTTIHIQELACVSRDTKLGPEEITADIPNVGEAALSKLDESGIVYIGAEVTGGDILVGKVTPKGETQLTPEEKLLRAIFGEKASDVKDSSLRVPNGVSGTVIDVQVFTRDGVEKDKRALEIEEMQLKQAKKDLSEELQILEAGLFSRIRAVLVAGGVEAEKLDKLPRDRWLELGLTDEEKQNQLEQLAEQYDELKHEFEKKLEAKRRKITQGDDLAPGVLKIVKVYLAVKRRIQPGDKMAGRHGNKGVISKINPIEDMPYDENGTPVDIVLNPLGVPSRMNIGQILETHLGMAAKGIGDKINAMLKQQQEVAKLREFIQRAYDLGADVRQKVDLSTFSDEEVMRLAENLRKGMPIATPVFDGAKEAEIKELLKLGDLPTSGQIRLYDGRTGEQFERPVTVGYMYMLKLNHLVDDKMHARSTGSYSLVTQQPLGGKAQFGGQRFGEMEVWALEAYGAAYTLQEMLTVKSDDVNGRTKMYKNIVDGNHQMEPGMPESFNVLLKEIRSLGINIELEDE
Sequence of DNA-directed RNA polymerase subunit alpha/beta/beta'/omega (P0A7Z4 whole entry): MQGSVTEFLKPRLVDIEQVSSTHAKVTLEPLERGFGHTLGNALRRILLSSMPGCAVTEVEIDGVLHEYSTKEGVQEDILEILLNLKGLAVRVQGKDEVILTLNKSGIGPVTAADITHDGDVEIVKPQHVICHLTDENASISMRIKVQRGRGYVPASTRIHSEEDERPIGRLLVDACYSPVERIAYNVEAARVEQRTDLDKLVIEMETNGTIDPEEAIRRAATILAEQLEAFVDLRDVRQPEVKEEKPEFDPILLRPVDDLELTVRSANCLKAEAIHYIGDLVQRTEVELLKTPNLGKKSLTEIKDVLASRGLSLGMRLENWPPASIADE
Sequence of DNA-directed RNA polymerase subunit alpha/beta/beta'/omega (P0A8T7 whole entry): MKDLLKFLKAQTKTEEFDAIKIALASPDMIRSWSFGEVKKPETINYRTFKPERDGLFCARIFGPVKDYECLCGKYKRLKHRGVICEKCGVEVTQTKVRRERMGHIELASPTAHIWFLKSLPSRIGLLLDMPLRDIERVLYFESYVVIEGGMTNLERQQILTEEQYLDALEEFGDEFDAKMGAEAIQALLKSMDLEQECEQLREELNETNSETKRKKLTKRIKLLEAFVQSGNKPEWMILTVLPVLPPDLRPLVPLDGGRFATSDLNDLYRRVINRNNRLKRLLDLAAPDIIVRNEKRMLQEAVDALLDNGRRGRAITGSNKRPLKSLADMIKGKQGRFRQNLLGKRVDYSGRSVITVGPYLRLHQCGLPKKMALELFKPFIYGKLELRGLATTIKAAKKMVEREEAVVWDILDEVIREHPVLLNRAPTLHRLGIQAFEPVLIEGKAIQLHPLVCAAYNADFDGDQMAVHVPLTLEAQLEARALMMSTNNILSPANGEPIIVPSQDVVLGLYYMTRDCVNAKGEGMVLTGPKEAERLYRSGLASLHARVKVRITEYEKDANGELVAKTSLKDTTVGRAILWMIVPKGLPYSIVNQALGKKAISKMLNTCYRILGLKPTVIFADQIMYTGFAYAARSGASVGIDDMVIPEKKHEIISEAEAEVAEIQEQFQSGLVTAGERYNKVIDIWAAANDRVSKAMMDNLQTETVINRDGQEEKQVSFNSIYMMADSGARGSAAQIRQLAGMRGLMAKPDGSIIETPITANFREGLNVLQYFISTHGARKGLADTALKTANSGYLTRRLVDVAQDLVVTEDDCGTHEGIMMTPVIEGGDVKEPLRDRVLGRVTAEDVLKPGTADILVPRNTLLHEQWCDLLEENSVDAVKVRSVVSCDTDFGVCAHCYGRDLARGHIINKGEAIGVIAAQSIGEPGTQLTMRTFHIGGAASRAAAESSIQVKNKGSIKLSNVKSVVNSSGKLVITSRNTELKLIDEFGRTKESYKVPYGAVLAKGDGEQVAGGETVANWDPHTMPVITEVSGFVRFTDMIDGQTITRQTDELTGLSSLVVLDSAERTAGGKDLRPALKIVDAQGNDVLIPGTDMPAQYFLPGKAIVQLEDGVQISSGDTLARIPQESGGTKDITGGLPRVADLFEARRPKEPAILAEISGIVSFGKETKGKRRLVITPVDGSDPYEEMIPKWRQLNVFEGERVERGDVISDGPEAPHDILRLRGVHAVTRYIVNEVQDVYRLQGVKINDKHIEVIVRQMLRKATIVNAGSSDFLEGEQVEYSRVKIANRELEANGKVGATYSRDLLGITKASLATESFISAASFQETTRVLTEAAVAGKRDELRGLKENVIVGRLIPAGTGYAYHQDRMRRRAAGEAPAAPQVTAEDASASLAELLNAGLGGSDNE
Sequence of DNA-directed RNA polymerase subunit alpha/beta/beta'/omega (P0A800 whole entry): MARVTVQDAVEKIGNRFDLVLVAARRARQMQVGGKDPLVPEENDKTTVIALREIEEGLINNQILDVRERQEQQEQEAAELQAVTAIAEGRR

In the case of Cc1c2oc3c(C)ccc(C(=O)N[C@@H]4C(=O)N[C@H](C(C)C)C(=O)N5CCC[C@H]5C(=O)N(C)CC(=O)N(C)[C@@H](C(C)C)C(=O)O[C@@H]4C)c3nc-2c(C(=O)N[C@@H]2C(=O)N[C@H](C(C)C)C(=O)N3CCC[C@H]3C(=O)N(C)CC(=O)N(C)[C@@H](C(C)C)C(=O)O[C@@H]2C)c(NC2CC(C)(C)[N+]([O-])C(C)(C)C2)c1=O, the IC50 is reported as 2800 nM.
